Patent US20030216471A1, “Retinoid formulations for aerosolization and inhalation” (priority 2003, published 2003)
“Also recorded” adds a separate entry of the source.

Experiments:
TGase II = TGase II activity in cultured human breast cancer MCF-7 cells; assay type: cell-based
Method: Cells were harvested and Transglutaminase II activity was measured as described below. Nebulizer solution, inhalation procedures, details of animal housing are described below.
Cultured cells were placed in 100 μl scraping buffer [A: 2800 μl (400 μl 0.5M Na-Phosphate, 500 μl 0.01M EDTA, 100 μl 1M DTT, 9 ml PBS total 10 ml)+B:700 μl (10 μl 20 mg/ml PMSF 790 μl PBS total 800 μl)] for each dish. Cells were broken by a sonicator and kept in ice until used. TGase II assay was conducted as described below and previously {8217}.
Enzyme assay mixtures were prepared by adding 80 μl of SUBSTRATE mixture (322.8 μl H2O, 120 μl 0.5M NaBorate, 60 μl 0.01M EDTA, 60 μl 0.1M CaCl2, 6 μl 1M DTT, 240 μl dimethyl casein, 30 μl Triton X-100, 1.21 μl [^3H]-Putrescine, 120 μl Putrescine) to 20 μl sample, 20 μl scraping buffer for blank control, 20 μl (18 μl scraping buffer+2 μl TGase II) for positive control. Samples were mixed in 15 ml tubes, the tubes were shaken before putting them into a 28° C. water bath for 30 minutes. Reactions were slowed down in an ice bath. 80 μl of the incubation mixture was adsorbed onto paper disks. These were immediately dropped into cold 10% TCA (0.1% Putrescine) and washed with agitation for 7 minutes, followed by 2 additional washes with 5% TCA (0.05% putrescine) for 5-7 minutes, and once more with cold (−20° C.) 95% ethanol for 5 minutes. Paper disks were dried and placed into 5 ml Aquasol, and counted in a Liquid Scintillation Counter. Protein concentration determination was conducted by the Bradford method.

RAR γ = test: Time course of dietary RA effect on SENCAR mouse liver RAR γ; assay type: in vivo; settings: pharmacological dietary RA over physiological RA, day 1
Method: (§1) SENCAR mice (30) were divided into six experimental groups.
(§2) Tissues were collected, frozen in dry ice and kept at −70° C. until used. 500 mg aliquots were diced in small pieces and homogenized in 300 μl of cold PBS, using the hand held homogenizer for 2˜3 minutes. Sample and washes were centrifuged at 5000×g for 20 minutes. The pellet was suspended in 400 μl of ice-cold Buffer A [2 μl 0.5M EDTA, 10 μl 100 mM EGTA, 50 μl 100MM PMSF, 10 μl 1M DTT, 10 ml (10 mM HEPES pH 7.9+10 mM KCl)], and left at ice temperature for 15 minutes. 25 μl of 10% solution of NP-40 was added and samples were mixed in a vortex vigorously for 10 seconds. Samples were centrifuged at 14,000×g for 1 minute at 4° C. and the pellet treated once more in this fashion (resuspended etc.). The supernatant was removed and 100 μl of ice-cold Buffer C [4 μl 0.5M EDTA, 20 μl 100 mM EGTA, 20 μl 100 mM PMSF, 2 μl 1M DTT, 2 ml (20 mM HEPES pH 7.9+0.4M NaCl)] was added. Pellets were resuspended by tapping gently on the bottom of the Eppendorf tubes. Samples were rocked vigorously in a bucket of ice on an orbital shaker for 30 minutes. Samples were centrifuged at 14,000×g for 5 minutes at 4° C.
(§3) Samples were prepared by adding one part of the Sample Buffer to one part of the sample and mixing well. Samples were heated at 95° C. for 5 minutes to induce denaturation. […]

RAR α = test: Time course of dietary RA effect on SENCAR mouse liver RAR α; assay type: in vivo; settings: pharmacological dietary RA over physiological RA, day 1
Method: as §1, §2, §3

RARα [1] = test: Immunohistochemical analysis of SENCAR mouse liver, dietary RA; assay type: in vivo; settings: pharmacological RA diet compared to physiological RA, 75 weeks
Method: Liver tissue (approximately 300 mg) was fixed in 10% formalin, embedded in paraffin and 5 μm sections were used for immunohistochemistry. Staining for RAR was similar to our previously described protocol {8656}. ABC kit Mouse/Rabbit IgG and DAB Substrate kit were used (Vector Laboratories Inc., 30 Ingold Road Burlingame, Calif.).

RARγ = test: Western blot of SENCAR mouse liver, dietary RA 75 weeks, RAR γ; assay type: in vivo; settings: for RARγ densitometry of Western blots: liver
Method: as §2
(§4) Samples were prepared by adding one part of the Sample Buffer to one part of the sample and mixing well. Samples were heated at 95° C. for 5 minutes to induce denaturation. 5 μl of Rainbow Standard and 5 μl of Biotinylated Molecular Marker were added to parallel wells. 20 μg protein per sample was loaded in each lane. Electrophoresis was performed with voltage set at 125V for about 1˜1.5 hours. Gel transfer was executed at 25V for 2 hours. The membrane was stained in Ponceau S. for 5 minutes and destained with one wash of 5% acetic acid. The membrane was then washed in TBS solution until the staining disappeared. Membranes were incubated in 1 ml blocking solution and 9 ml TBS for 60 minutes. Membranes were incubated in 1 ml of blocking solution and 19 ml TBS along with 20 μl primary antibody solution overnight (dilution of 1:1000). Membranes were washed in PBS-Tween 20, 3 times for 10 minutes each. […]

RARβ = test: Western blot of SENCAR mouse liver, dietary RA 75 weeks, RAR β; assay type: in vivo; settings: for RARβ densitometry of Western blots: liver
Method: as §2, §4

RARα [2] = test: Western blot of SENCAR mouse liver, dietary RA 75 weeks, RAR α; assay type: in vivo; settings: for RARα densitometry of Western blots: liver
Method: as §2, §4

RAR β = test: Time course of dietary RA effect on SENCAR mouse liver RAR β; assay type: in vivo; settings: pharmacological dietary RA over physiological RA, day 1
Method: as §1, §2, §3

lung tissue RARs = test: SENCAR mouse lung tissue RARs, dietary RA; assay type: in vivo
Method: as §1, §2, §3

[3] = dietary RA 30 μg/g vs 3 μg/g diet, male SENCAR mice

## CC1=C(/C=C/C(C)=C/C=C/C(C)=C/C(=O)O)C(C)(C)CCC1 [RA, all-trans-retinoic acid]
TGase II; MCF-7 cells treated at 10^−6 M for 72 hours, DMSO control 0.183
  TGase II Activity: 1.359+/−0.098 picomoles/μg protein/30 minutes
TGase II; MCF-7 cells, 10^−6 M, 72 hours, over DMSO
  stimulating TGase II activity: 7.4 Fold
RAR γ
  stimulation of liver RAR (third named, γ): 2.1 fold
RAR α
  stimulation of liver RAR (first named, α): 2 fold
RARα [1]
  RARα immunohistochemical staining in liver nuclei: striking increase of RAR expression; also recorded: marked increase in staining
RARγ; [3]
  upregulation of liver RAR (third named, γ): 12.5 fold
RARγ; RA diet 3 μg/g
  RARγ densitometry of Western blots: 23.1+/−6.7 IDV
RARγ; RA diet 30 μg/g
  RARγ densitometry of Western blots: 288+/−17.4 IDV
RARβ; [3]
  upregulation of liver RAR (second named, β): 13.5 fold
RARβ; RA diet 3 μg/g
  RARβ densitometry of Western blots: 18.9+/−7.4 IDV
RARβ; RA diet 30 μg/g
  RARβ densitometry of Western blots: 254+/−31.9 IDV
RARα [2]; [3]
  upregulation of liver RAR (first named, α): 21.8 fold
RARα [2]; RA diet 3 μg/g
  RARα densitometry of Western blots: 12.1+/−7.2 IDV
RARα [2]; RA diet 30 μg/g
  RARα densitometry of Western blots: 264+/−21.3 IDV
RAR β
  stimulation of liver RAR (second named, β): 4 fold
Lung tissue RARs; long term feeding of 30 μg/g diet, SENCAR mouse
  effect of dietary RA on lung tissue RARs: failed to induce
Lung tissue RARs; time course, 1 to 28 days, 30 μg/g diet, not shown
  effect of dietary RA on lung tissue RARs: without any measurable effect; also recorded: no effect
